Laboratory results reported in US20030232986A1, “Inhibitors of caspases” (Vertex Pharmaceuticals Incorporated, priority 1998, published 2003).
pIC50, pKi: −log10 of the molar value. Like-named read-outs stand apart in the source and are kept apart here. Where a SMILES comes first, the peptide text is derived from it. [ ]: non-standard residue; d: D form. 4Abz = Nc1ccc(C(=O)O)cc1

Experiments:
[1] = tested on: Human Peripheral Blood Mononuclear Cells (PBMC), mature IL-1β; assay: PBMC cell assay: IL-1β assay with human peripheral blood mononuclear cells; format: cell-based; conditions: LPS-stimulated human PBMC, mature IL-1β in supernatant by ELISA
Excerpt: IL-1β Assay with a Mixed Population of Human Peripheral Blood Mononuclear Cells (PBMC) or Enriched Adherent Mononuclear Cells
Processing of pre-IL-1β by ICE can be measured in cell culture using a variety of cell sources. Human PBMC obtained from healthy donors provides a mixed population of lymphocyte subtypes and mononuclear cells that produce a spectrum of interleukins and cytokines in response to many classes of physiological stimulators. Adherent mononuclear cells from PBMC provides an enriched source of normal monocytes for selective studies of cytokine production by activated cells.
An initial dilution series of test compound in DMSO or ethanol is prepared, with a subsequent dilution into RPMI-10% FBS media (containing 2 mM L-glutamine, 10 mM HEPES, 50 U and 50 ug/ml pen/strep) respectively to yield drugs at 4× the final test concentration containing 0.4% DMSO or 0.4% ethanol. The final concentration of DMSO is 0.1% for all drug dilutions. A concentration titration which brackets the apparent Ki for a test compound determined in an ICE inhibition assay is generally used for the primary compound screen.
Generally 5-6 compound dilutions are tested and the cellular component of the assay is performed in duplicate, with duplicate ELISA determinations on each cell culture supernatant.
Buffy coat cells isolated from one pint human blood (yielding 40-45 ml final volume plasma plus cells) are diluted with media to 80 ml and LeukoPREP separation tubes (Becton Dickinson) are each overlaid with 10 ml of cell suspension. After 15 min centrifugation at 1500-1800×g, the plasma/media layer is aspirated and then the mononuclear cell layer is collected with a Pasteur pipette and transferred to a 15 ml conical centrifuge tube (Corning). Media is added to bring the volume to 15 ml, gently mix the cells by inversion and centrifuge at 300×g for 15 min. The PBMC pellet is resuspended in a small volume of media, the cells are counted and adjusted to 6×10^6 cells/ml.
For the cellular assay, 1.0 ml of the cell suspension is added to each well of a 24-well flat bottom tissue culture plate (Corning), 0.5 ml test compound dilution and 0.5 ml LPS solution (Sigma #L-3012; 20 ng/ml solution prepared in complete RPMI media; final LPS concentration 5 ng/ml). The 0.5 ml additions of test compound and LPS are usually sufficient to mix the contents of the wells. Three control mixtures are run per experiment, with either LPS alone, solvent vehicle control, and/or additional media to adjust the final culture volume to 2.0 ml. The cell cultures are incubated for 16-18 hr at 37° C. in the presence of 5% CO2.
At the end of the incubation period, cells are harvested and transferred to 15 ml conical centrifuge tubes. After centrifugation for 10 min at 200×g, supernatants are harvested and transferred to 1.5 ml Eppendorf tubes. It may be noted that the cell pellet may be utilized for a biochemical evaluation of pre-IL-1β and/or mature IL-1β content in cytosol extracts by Western blotting or ELISA with pre-IL-1β specific antisera.
PBMC are isolated and prepared as described above. Media (1.0 ml) is first added to wells followed by 0.5 ml of the PBMC suspension. After a one hour incubation, plates are gently shaken and nonadherent cells aspirated from each well. Wells are then gently washed three times with 1.0 ml of media and final resuspended in 1.0 ml media. The enrichment for adherent cells generally yields 2.5-3.0×10^5 cells per well. The addition of test compounds, LPS, cell incubation conditions and processing of supernatants proceeds as described above.
Quantikine kits (R&D Systems) may be used for the measurement of mature IL-1β. Assays are performed according to the manufacturer's directions. Mature IL-1β levels of about 1-3 ng/ml in both PBMC and adherent mononuclear cell positive controls are observed. […]

[2] = tested on: Human whole blood, IL-1β production; assay: Whole blood assay for IL-1β production; format: cell-based; conditions: LPS-stimulated whole blood, IL-1β by ELISA
Method: The whole blood assay is a simple method for measuring the production of IL-1β (or other cytokines) and the activity of potential inhibitors. The complexity of this assay system, with its full complement of lymphoid and inflammatory cell types, spectrum of plasma proteins and red blood cells is an ideal in vitro representation of human in vivo physiologic conditions.
Set incubator or water bath at 30° C. Aliquot 0.25 ml of blood into 1.5 ml eppendorf tubes. Note: be sure to invert the whole blood sample tubes after every two aliquots. Differences in replicates may result if the cells sediment and are not uniformly suspended. Use of a positive displacement pipette will also minimize differences between replicate aliquots.
Prepare drug dilutions in sterile pyrogen-free saline by serial dilution. A dilution series which brackets the apparent Ki for a test compound determined in an ICE inhibition assay is generally used for the primary compound screen. For extremely hydrophobic compounds, prepare compound dilutions in fresh plasma obtained from the same blood donor or in PBS-containing 5% DMSO to enhance solubility.
Add 25 μl test compound dilution or vehicle control and gently mix the sample. Then add 5.0 μl LPS solution (250 ng/ml stocked prepared fresh: 5.0 ng/ml final concentration LPS), and mix again. Incubate the tubes at […] in a water bath for 16-18 hr with occasional mixing. Alternatively, the tubes can be placed in a rotator set at 4 rpm for the same incubation period. This assay should be set up in duplicate or triplicate with the following controls: negative control—no LPS; positive control—no test inhibitor; vehicle control—the highest concentration of DMSO or compound solvent used in the experiment. Additional saline is added to all control tubes to normalize volumes for both control and experimental whole blood test samples.
After the incubation period, whole blood samples are centrifuged for 10 minutes at ^˜2000 rpm in the microfuge, plasma is transferred to a fresh microfuge tube and centrifuged at 1000×g to pellet residual platelets if necessary. Plasma samples may be stored frozen at −70° C. prior to assay for cytokine levels by ELISA.
R & D Systems (614 McKinley Place N.E. Minneapolis, Minn. 55413) Quantikine kits may be used for measurement of IL-1β and TNF-α. The assays are performed according to the manufacture's directions. IL-1β levels of ^˜1-5 ng/ml in positive controls among a range of individuals may be observed. A 1:200 dilution of plasma for all samples is usually sufficient for experiments for ELISA results to fall on the linear range of the ELISA standard curves. It may be necessary to optimize standard dilutions if you observe differences in the whole blood assay. Nerad, J. L. et al., J. Leukocyte Biol., 52, pp. 687-692 (1992).

Caspase-1 = biological target: T1, Caspase-1 (Homo sapiens, UniProt P29466); assay: Caspase-1 enzyme inhibition (Ki); format: biochemical
T1 sequence (P29466 120-297 limits assumed): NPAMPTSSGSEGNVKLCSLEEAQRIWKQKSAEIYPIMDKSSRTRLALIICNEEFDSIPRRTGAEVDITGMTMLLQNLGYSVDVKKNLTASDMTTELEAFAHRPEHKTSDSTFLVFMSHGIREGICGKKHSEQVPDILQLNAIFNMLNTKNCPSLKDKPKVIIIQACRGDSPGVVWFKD
T1 sequence (P29466 317-404 limits assumed): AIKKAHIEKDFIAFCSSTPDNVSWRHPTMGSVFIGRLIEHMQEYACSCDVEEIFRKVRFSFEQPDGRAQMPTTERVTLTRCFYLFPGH
Procedure, shortened: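 Ki obtained by fitting rate versus inhibitor concentration to the Morrison tight-binding equation for competitive inhibitors, with pNA release read at 405 nm at 37 °C. Substrate Suc-YVAD-pNA (80 μM final) added after 15 min enzyme–inhibitor preincubation in Tris pH 7.5 buffer with DTT and CHAPS.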

[3] = substrate Suc-YVAD-pNA 80 μM, 37° C., pH 7.5

SMILES	pIC50 [1]	pIC50 [2]	pKi (Caspase-1)	pKi (Caspase-1; [3])
CCCCCCOc1ccc(C(=O)N[C@H](C(=O)N2CCC[C@H]2C(=O)N[C@H](C=O)CC(=O)O)C(C)C)cc1 [Example 5y]	6.00 to 6.30	5.12 to 5.60	> 8.00	> 8.00
C[C@H](NC(=O)[C@@H](NC(=O)c1cccc2ccccc12)C(C)(C)C)C(=O)N[C@H](C=O)CC(=O)O [Example 29k]	> 6.30	> 5.60	–	> 8.00
C[C@H](NC(=O)c1cccc(N(C)C)c1)C(=O)N1CCC[C@H]1C(=O)N[C@H](C=O)CC(=O)O [Example 7n]	6.00 to 6.30	> 5.60	–	6.00 to 8.00
CC(=O)N[C@@H]1C[C@@H](C(=O)N[C@H](C=O)CC(=O)O)N(C(=O)[C@@H](NC(=O)c2nccc3ccccc23)C(C)C)C1 [Example 9g]	5.70 to 6.00	5.12 to 5.60	–	> 8.00
CC(C)[C@H](NC(=O)c1ccccc1C(=O)c1ccc(F)cc1)C(=O)N1CCC[C@H]1C(=O)N[C@H](C=O)CC(=O)O [Example 5l]	> 6.30	< 5.12	6.00 to 8.00	6.00 to 8.00
CC(C)[C@H](NC(=O)c1nccc2ccccc12)C(=O)N1CCCC[C@H]1C(=O)N[C@H](C=O)CC(=O)O [Example 25b]	6.00 to 6.30	5.12 to 5.60	–	> 8.00
C[C@H](NC(=O)c1ccc(N)c(C(F)(F)F)c1)C(=O)N1CCC[C@H]1C(=O)N[C@H](C=O)CC(=O)O [Example 122l, 3-({1-[2-(4-Amino-3-trifluoromethyl-benzoylamino)-propionyl]-pyrrolidine-2-carbonyl}-amino)-4-oxo-butyric acid]	6.00 to 6.30	> 5.60	–	6.00 to 8.00
CC(C)C(NC(=O)c1ccc(N)c(Cl)c1)C(=O)N1CCCC1C(=O)NC(C=O)CC(=O)O (stereo not shown) [Example 61, 3-((1-[2-(4-Amino-3-chloro-benzoylamino)-3-methyl-butyryl]-pyrrolidine-2-carbonyl}-amino)-4-oxo-butyric acid]	6.00 to 6.30	> 5.60	–	> 8.00
CC(C)[C@H](NC(=O)c1cnc2ccccc2n1)C(=O)N1CCC[C@H]1C(=O)N[C@H](C=O)CC(=O)O [Example 5w]	6.00 to 6.30	> 5.60	6.00 to 8.00	6.00 to 8.00
COc1ccc(C(=O)N[C@H](C(=O)N2CCC[C@H]2C(=O)N[C@H](C=O)CC(=O)O)C(C)C)cc1OCc1ccccc1 [Example 5aa]	6.00 to 6.30	> 5.60	> 8.00	> 8.00
COc1ccc(C(=O)N[C@H](C(=O)N2C3CCCCC3C[C@H]2C(=O)N[C@H](C=O)CC(=O)O)C(C)C)cc1 (stereo partly shown) [Example 26d]	6.00 to 6.30	> 5.60	–	> 8.00
CC(=O)Nc1ccc(C(=O)N[C@H](C(=O)N2CCC[C@H]2C(=O)N[C@H](C=O)CC(=O)O)C(C)C)cc1 [Example 5a] (Ac-[4Abz]VPD-aldehyde)	< 5.70	> 5.60	6.00 to 8.00	> 8.00
CC(C)[C@H](NC(=O)c1cc2ccccc2[nH]1)C(=O)N[C@@H](C)C(=O)N[C@H](C=O)CC(=O)O [Example 29i]	> 6.30	> 5.60	–	> 8.00
CC(C)[C@H](NC(=O)c1ccc2c(c1)S(=O)(=O)c1ccccc1C2=O)C(=O)N1CCC[C@H]1C(=O)N[C@H](C=O)CC(=O)O [Example 5ai]	> 6.30	< 5.12	> 8.00	> 8.00
COc1ccc(C(=O)N[C@H](C(=O)N2CCNC[C@H]2C(=O)N[C@H](C=O)CC(=O)O)C(C)C)cc1 [Example 15c]	6.00 to 6.30	> 5.60	–	> 8.00
C[C@H](NC(=O)c1ccc(N)c(Cl)c1)C(=O)N1CCNC[C@H]1C(=O)N[C@H](C=O)CC(=O)O [Example 16b]	5.70 to 6.00	> 5.60	–	> 8.00
C[C@H](NC(=O)c1ccccn1)C(=O)N1CCC[C@H]1C(=O)N[C@H](C=O)CC(=O)O [Example 122e]	5.70 to 6.00	5.12 to 5.60	–	6.00 to 8.00
CC(C)[C@H](NC(=O)c1ccc2ncccc2c1)C(=O)N1CCC[C@H]1C(=O)N[C@H](C=O)CC(=O)O [Example 5ad]	> 6.30	> 5.60	> 8.00	> 8.00
CC(C)[C@H](NC(=O)c1cccc2ccccc12)C(=O)N1CCC[C@H]1C(=O)N[C@H](C=O)CC(=O)O [Example 5d]	6.00 to 6.30	5.12 to 5.60	–	> 8.00
C[C@H](NC(=O)c1cc(Cl)c(N)c(Cl)c1)C(=O)N1CCC[C@H]1C(=O)N[C@H](C=O)CC(=O)O [Example 122g, 3-({1-[2-(4-Amino-3,5-dichloro-benzoylamino)-propionyl]-pyrrolidine-2-carbonyl}-amino)-4-oxo-butyric acid]	6.00 to 6.30	> 5.60	–	> 8.00
CC(C)S(=O)(=O)N1CCN(C(=O)[C@H](C)NC(=O)c2nccc3ccccc23)[C@H](C(=O)N[C@H](C=O)CC(=O)O)C1 [Example 18b]	6.00 to 6.30	> 5.60	–	> 8.00
C[C@H](NC(=O)c1ccc(N(C)C)c2ccccc12)C(=O)N1CCC[C@H]1C(=O)N[C@H](C=O)CC(=O)O [Example 7g]	> 6.30	5.12 to 5.60	–	> 8.00
